# Test: Solubility in solvents (PGME or PGMEA) commonly used in semiconductor device production
# Format: physicochemical
# Conditions: for Solubility (g/100 g-PGMEA): solvent propylene glycol 1-monomethyl ether 2-acetate (PGMEA); for Solubility (g/100 g-PGME): solvent propylene glycol 1-monomethyl ether (PGME)
# Description: In order to examine the solubilities of TMOM-TGU produced in Example 2, TMOM-DTGU produced in Example 4, and TMOM-GU as Comparative Example, these compounds were dissolved in propylene glycol 1-monomethyl ether (PGME) or propylene glycol 1-monomethyl ether 2-acetate (PGMEA), each of which is a solvent commonly used in, for example, production processes for semiconductor devices.
Solubility (g/100 g-PGMEA),Solubility (g/100 g-PGME),"solubility in a solvent (in words) (conclusion from Table 1 (PGME, PGMEA))",SMILES
12.5 g/100 g-PGMEA,20 g/100 g-PGME,,"COCN1C(=O)N(COC)C2C1N(COC)C(=O)N2COC (stereo not shown) [Comparative Example, 1,3,4,6-tetrakis(methoxymethyl)glycoluril, reference compound]"
100 g/100 g-PGMEA,100 g/100 g-PGME,particularly excellent solubility,"COCN1C(=O)N(COC)C2C1N(COC)C(=S)N2COC (stereo not shown) [Example 2, 1,3,4,6-tetrakis(methoxymethyl)monothioglycoluril]"
25 g/100 g-PGMEA,20 g/100 g-PGME,,"COCN1C(=S)N(COC)C2C1N(COC)C(=S)N2COC (stereo not shown) [Example 4, 1,3,4,6-tetrakis(methoxymethyl)dithioglycoluril]"
